Measured values published in ChEMBL document CHEMBL6087433, “Discovery of ART0380, a Potent and Selective ATR Kinase Inhibitor Undergoing Phase 2 Clinical Studies for the Treatment of Advanced or Metastatic Solid Cancers” (J Med Chem, 2024).

Assays:
[1] = molecular target: T1, Serine/threonine-protein kinase mTOR (Homo sapiens, UniProt P42345)
[2] = molecular target: T1, Serine/threonine-protein kinase mTOR; remark: listed apart in the source
in vitro = conditions: human, human liver microsomes
CYP3A4 = CYP3A4 (Homo sapiens, UniProt P08684); assay: in vitro; conditions: human liver microsomes, probe midazolam
[3] = molecular target: Serine/threonine-protein kinase ATR (Homo sapiens, UniProt Q13535)
Chain of Serine/threonine-protein kinase ATR (Q13535 whole entry): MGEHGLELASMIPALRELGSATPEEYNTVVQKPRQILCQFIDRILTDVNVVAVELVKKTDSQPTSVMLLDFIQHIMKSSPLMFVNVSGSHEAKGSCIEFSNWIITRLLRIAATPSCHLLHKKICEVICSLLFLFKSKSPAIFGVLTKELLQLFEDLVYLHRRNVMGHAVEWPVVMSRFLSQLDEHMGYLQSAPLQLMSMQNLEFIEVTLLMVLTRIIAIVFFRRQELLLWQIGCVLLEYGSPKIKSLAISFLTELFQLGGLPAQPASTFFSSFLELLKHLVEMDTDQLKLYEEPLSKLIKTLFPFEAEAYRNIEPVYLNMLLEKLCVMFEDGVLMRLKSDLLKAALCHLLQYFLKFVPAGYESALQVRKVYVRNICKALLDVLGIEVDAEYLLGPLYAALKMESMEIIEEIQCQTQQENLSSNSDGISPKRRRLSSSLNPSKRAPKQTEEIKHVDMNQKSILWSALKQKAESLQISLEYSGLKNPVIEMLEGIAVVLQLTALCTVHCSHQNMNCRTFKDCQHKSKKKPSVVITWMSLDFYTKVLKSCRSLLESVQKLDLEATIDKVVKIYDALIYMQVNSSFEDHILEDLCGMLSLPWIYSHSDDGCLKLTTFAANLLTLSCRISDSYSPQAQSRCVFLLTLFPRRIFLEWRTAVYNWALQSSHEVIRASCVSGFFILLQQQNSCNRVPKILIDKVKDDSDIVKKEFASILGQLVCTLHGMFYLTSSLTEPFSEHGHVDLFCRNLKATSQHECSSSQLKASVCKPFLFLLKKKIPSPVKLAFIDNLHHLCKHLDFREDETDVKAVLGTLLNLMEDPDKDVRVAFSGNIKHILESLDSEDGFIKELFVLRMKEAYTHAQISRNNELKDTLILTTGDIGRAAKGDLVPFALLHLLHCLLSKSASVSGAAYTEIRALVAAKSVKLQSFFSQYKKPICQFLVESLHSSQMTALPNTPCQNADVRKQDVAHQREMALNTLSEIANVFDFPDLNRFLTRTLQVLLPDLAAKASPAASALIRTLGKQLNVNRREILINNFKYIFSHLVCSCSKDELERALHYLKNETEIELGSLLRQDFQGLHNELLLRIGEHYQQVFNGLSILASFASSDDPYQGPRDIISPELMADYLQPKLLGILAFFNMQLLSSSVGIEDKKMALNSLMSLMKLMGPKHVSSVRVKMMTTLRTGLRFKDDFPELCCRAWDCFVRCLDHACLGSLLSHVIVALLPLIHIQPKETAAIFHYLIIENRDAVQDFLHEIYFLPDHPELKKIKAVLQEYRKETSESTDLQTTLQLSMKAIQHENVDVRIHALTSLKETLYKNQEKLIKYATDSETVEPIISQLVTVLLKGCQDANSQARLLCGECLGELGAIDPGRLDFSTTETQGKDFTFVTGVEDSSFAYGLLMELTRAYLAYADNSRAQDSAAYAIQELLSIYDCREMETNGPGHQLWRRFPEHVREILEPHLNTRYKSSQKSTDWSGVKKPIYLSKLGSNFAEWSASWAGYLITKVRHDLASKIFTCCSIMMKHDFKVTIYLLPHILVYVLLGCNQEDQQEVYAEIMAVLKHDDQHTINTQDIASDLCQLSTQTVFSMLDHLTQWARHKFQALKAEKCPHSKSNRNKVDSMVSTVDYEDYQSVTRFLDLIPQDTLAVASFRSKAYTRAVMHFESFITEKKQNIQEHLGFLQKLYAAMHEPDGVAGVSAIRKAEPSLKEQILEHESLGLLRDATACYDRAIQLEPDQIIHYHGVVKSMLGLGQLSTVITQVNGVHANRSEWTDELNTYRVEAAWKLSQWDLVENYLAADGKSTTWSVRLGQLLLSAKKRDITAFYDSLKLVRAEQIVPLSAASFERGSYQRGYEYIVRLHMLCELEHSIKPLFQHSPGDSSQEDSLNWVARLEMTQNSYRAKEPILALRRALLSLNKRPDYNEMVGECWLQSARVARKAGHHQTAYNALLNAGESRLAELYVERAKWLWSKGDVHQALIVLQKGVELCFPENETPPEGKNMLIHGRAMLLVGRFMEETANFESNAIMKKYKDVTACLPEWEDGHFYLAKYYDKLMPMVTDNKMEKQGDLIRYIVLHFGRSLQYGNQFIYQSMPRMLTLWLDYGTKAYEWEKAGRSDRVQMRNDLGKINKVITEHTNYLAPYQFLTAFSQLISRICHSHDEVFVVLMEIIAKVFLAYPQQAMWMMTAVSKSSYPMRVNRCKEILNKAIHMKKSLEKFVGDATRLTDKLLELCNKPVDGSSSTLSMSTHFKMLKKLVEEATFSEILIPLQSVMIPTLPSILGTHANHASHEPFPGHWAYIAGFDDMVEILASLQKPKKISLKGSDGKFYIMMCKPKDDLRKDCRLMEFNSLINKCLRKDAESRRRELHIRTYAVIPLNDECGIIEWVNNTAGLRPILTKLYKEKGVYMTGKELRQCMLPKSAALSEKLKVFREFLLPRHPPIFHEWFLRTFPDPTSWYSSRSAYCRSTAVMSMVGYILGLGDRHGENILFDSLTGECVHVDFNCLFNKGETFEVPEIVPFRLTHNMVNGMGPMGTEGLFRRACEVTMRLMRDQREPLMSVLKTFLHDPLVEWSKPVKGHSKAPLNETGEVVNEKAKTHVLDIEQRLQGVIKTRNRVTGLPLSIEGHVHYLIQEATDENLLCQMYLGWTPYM

Chain of CYP3A4 (P08684 whole entry): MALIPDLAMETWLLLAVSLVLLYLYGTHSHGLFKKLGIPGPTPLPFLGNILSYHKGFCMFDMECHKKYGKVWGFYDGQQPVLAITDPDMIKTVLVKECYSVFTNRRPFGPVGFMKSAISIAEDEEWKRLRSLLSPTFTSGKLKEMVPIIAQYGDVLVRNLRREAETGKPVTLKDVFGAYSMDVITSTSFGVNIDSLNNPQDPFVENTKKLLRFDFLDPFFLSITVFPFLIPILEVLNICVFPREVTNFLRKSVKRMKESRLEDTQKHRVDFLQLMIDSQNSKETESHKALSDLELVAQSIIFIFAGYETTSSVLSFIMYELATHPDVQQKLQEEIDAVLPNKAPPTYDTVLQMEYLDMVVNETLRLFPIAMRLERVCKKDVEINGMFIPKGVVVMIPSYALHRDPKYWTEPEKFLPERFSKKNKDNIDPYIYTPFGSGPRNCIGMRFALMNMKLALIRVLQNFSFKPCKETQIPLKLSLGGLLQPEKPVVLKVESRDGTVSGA

IC50 [1] [µM] | IC50 [2] [µM] | CLint scaled at 0.75 h, 1 µM (in vitro) [L/h/kg] | inhibition at 10 µM (CYP3A4) [%] | IC50 [3] [µM] | Compound
4.78 | 15.4 | – | – | – | C[C@@H]1COCCN1c1cc(N=S(C)(C)=O)nc(-c2ccnc(N)c2)n1
1.6 | 8.5 | – | – | – | C[C@@H]1COCCN1c1cc(N=S(C)(C)=O)nc(-c2ccnc3[nH]ccc23)c1
0.419 | 2.4 | – | – | – | C[C@@H]1COCCN1c1cc(N=S(C)(C)=O)nc(-c2ccnc3[nH]ccc23)n1
– | > 10 | – | – | – | C[C@@H]1COCCN1c1cc(-c2ccnc3[nH]ccc23)nc(N=S(C)(C)=O)n1
2.98 | 8.24 | 0.144 | – | – | COc1cc(-c2nc(N=[S@](C)(=O)C3COC3)cc(N3CCOC[C@H]3C)n2)cc(N)n1
0.866 | 7 | 0.426 | – | – | COc1cc(-c2nc(N=[S@@](C)(=O)C3CC3)cc(N3CCOC[C@H]3C)n2)cc(N)n1
– | > 10 | – | – | – | Cc1cc(-c2nc(N=S(C)(C)=O)cc(N3CCOC[C@H]3C)n2)cc(N)n1
0.081 | 0.42 | – | – | – | C[C@@H]1COCCN1c1cc(N2CCCN(C)S2(=O)=O)nc(-c2ccnc3[nH]ccc23)n1
0.217 | 0.496 | – | – | – | C[C@@H]1COCCN1c1cc(C2CCN(S(C)(=O)=O)CC2)nc(-c2ccnc3[nH]ccc23)n1
0.307 | 2.19 | – | – | – | C[C@@H]1COCCN1c1cc(N=S(C)(=O)C2COC2)nc(-c2ccnc3[nH]ccc23)n1 (mixture of isomers)
0.421 | 5.25 | 0.78 | – | – | COc1cc(-c2nc(N=[S@@](C)(=O)C3COC3)cc(N3CCOC[C@H]3C)n2)cc(N)n1
0.502 | 3.34 | – | 56 | – | Cc1cc2c(-c3nc(N=S(C)(C)=O)cc(N4CCOC[C@H]4C)n3)ccnc2[nH]1
– | 6.36 | – | – | – | C[C@@H]1COCCN1c1cc(N=S(C)(=O)C2CCOCC2)nc(-c2ccnc3[nH]ccc23)n1 (mixture of isomers)
2.21 | 8.26 | – | – | – | COc1cc(-c2nc(N=S(C)(C)=O)cc(N3CCOC[C@H]3C)n2)cc(N)n1
1.12 | 1.71 | – | – | – | CC[S@@](C)(=O)=Nc1cc(N2CCOC[C@H]2C)nc(-c2ccnc3[nH]ccc23)n1
0.165 | 1.66 | – | – | – | C[C@@H]1COCCN1c1cc(N=[S@@](C)(=O)C2CC2)nc(-c2ccnc3[nH]ccc23)n1
0.891 | 2.16 | – | – | – | CC[S@](C)(=O)=Nc1cc(N2CCOC[C@H]2C)nc(-c2ccnc3[nH]ccc23)n1
1.19 | 8.2 | – | – | – | C[C@@H]1COCCN1c1cc(N=[S@@](C)(=O)C2CC2)nc(-c2ccnc3[nH]ccc23)c1
0.113 | 1.3 | – | – | 0.134 | C[C@@H]1COCCN1c1cc(C2CCCN(S(C)(=O)=O)C2)nc(-c2ccnc3[nH]ccc23)n1 (mixture of isomers)
2.77 | 9.65 | – | – | – | C[C@@H]1COCCN1c1cc(N=[S@](C)(=O)C2CC2)nc(-c2ccnc3[nH]ccc23)c1
0.274 | 3.9 | – | – | – | C[C@@H]1COCCN1c1cc(C2CCCS2(=O)=O)nc(-c2ccnc3[nH]ccc23)n1 (mixture of isomers)
0.324 | 2.38 | – | – | – | C[C@@H]1COCCN1c1cc(N=[S@](C)(=O)C2CC2)nc(-c2ccnc3[nH]ccc23)n1
– | > 10 | – | – | 0.875 | C[C@@H]1COCCN1c1cc(N=S(C)(C)=O)nc(-c2ccnc(N)c2)c1
